Laboratory results from US12667574B2, “Paraxanthine-based bioactive composition and method of use thereof” (PX ING, LLC, priority 2021, dated 2026).

How the values were obtained:
[1] = system: brain derived neuro factor, BDNF; assay: BDNF level, neuroplasticity (Example 3); type: in vivo, rats
Description: (§1) Distilled water was provided ad libitum. […] Ltd (Bangalore, India).
(§2) 0.5% Carboxy Methyl Cellulose sodium was used as vehicle and the test item formulations were prepared daily. […] The last dose on day 14 was given 1 hour prior to testing.

[2] = system: acetylcholine (Ach); assay: Acetylcholine concentration (Example 3); type: in vivo, rats; details: for acetylcholine (Ach) concentration: oral 14 days
Description: as §1, §2

[3] = system: male Swiss Albino mice; assay: Treadmill endurance test (first Example 4, L-Theanine); type: in vivo
Description: as §1
The following HED were used in this study: 50 mg paraxanthine, (ENFINITY™ Ingenious Ingredients, L.P Lewisville, TX, USA; mouse dose: 10.275 mg/kg bw/day); 25 mg L-Theanine (mouse dose: 5.137 mg/kg bw), and 50 mg paraxanthine plus 25 mg L-Theanine. 0.5% Carboxy Methyl Cellulose sodium was used as vehicle and the test item formulations were prepared daily.
During the treatment period, exercise training was completed using a motorized treadmill (Exer 3/6, Columbus Instruments international, OH, USA) at a moderate intensity of 20 cm/sec as maximal running speed, an incline of ten degrees and a shock intensity of 0.2 mA, for ten minutes. The speed of the treadmill was manually adjusted by increasing the belt speed by 5 cm/sec every two minutes throughout the total duration of ten minutes. All animals were adapted to this procedure daily 60 minutes after dosing for five days in a week during the treatment period. 1.3. Treadmill Endurance Test
Muscle endurance was accomplished on a motorized treadmill at a low to moderate intensity of 5-50 cm/sec as maximal running speed, an incline of ten degrees and a shock intensity of 0.2 mA, with the belt speed being increased by 5 cm/sec every two minutes until it reaches 50 cm/sec. Animals were subjected to the treadmill test until exhaustion.

[4] = system: dopamine (dopa); assay: Dopamine concentration (second Example 4); type: in vivo, rats; details: for dopamine (dopa) concentration: oral 14 days
Description: as §1
(§3) The following HED were used in this study: 50 mg paraxanthine, (ENFINITY™, Ingenious Ingredients, L.P Lewisville, TX, USA; rat dose: 5.141 mg/kg bw/day); 25 mg L-Theanine (rat dose: 2.570 mg/kg bw), and 50 mg paraxanthine plus 25 mg L-Theanine. 0.5% Carboxy Methyl Cellulose sodium was used as vehicle and the test item formulations were prepared daily. […] The last dose on day 14 was given 1 hour prior to testing.

[5] = system: brain derived neuro factor, BDNF; assay: BDNF level, neuroplasticity (second Example 4); type: in vivo, rats; details: for BDNF: oral 14 days
Description: as §1, §3

[6] = system: acetylcholine (Ach); assay: Acetylcholine concentration (second Example 4); type: in vivo, rats; details: for acetylcholine (Ach) concentration: oral 14 days
Description: as §1, §3

[7] = system: male Swiss Albino Wistar rats; assay: Walter Morris Maze test (second Example 4, L-Theanine); type: in vivo; details: for escape latency: oral 14 days
Description: as §1, §3
The Walter Morris Maze test consisted of a circular pool in a room with geometric shapes on the wall serving as spatial cues. The pool, which is 70 cm in diameter and painted with black color, filled with 13 cm depth of 25±1° C. water. A platform (6 cm diameter) was placed into one quadrant of the pool and submerged 1 cm below the water surface. For the training, all rats were trained to locate the submerged platform in a constant location. The training day consisted of four trials. During training, a rat started at one of four starting points and allowed to swim until it located the platform or until 60 seconds had elapsed. The rat was allowed to remain on the platform for 15 seconds before being dried off and later was transferred to a holding cage. […] The animals were continuously trained 4 times at 4 starting points continued daily for 4 days, the main trial was conducted on the 15th & 16th day and the latency of escaping onto the platform was recorded.

## Cn1c(=O)[nH]c2ncn(C)c2c1=O [paraxanthine, 1,7-Dimethyl-3H-purine-2,6-dione]
[1]; old rats
  increase in BDNF compared to theobromine: 3.1%
  increase in BDNF compared to theophylline: 3.8%
[1]; young rats, oral 14 days
  BDNF: 917.05 ± 5.21 pg/mL
[1]; young rats, compared to alpha-GPC
  increase in BDNF compared to alpha-GPC: 4.0%
[1]; young rats, compared to placebo
  increase in BDNF compared to placebo: 22.7%
[1]; young rats
  increase in BDNF compared to theobromine: 5.4%
  increase in BDNF compared to theophylline: 4.9%
[2]; old rats
  acetylcholine (Ach) concentration: 59.78±2.61 U/mL
  increase in Ach compared to alpha-GPC: 5.1%
  increase in Ach compared to placebo: 23.2%
  increase in Ach compared to theobromine: 5.5%
  increase in Ach compared to theophylline: 8.0%
[2]; young rats
  acetylcholine (Ach) concentration: 66.83±2.38 U/mL
  increase in Ach compared to alpha-GPC: 1.4%
  increase in Ach compared to placebo: 23.9%
  increase in Ach compared to theobromine: 4.0%
  increase in Ach compared to theophylline: 4.6%
[3]; compared to L-Theanine alone
  increase of distance travelled compared to L-Theanine: 4.9%
[3]; compared to control (placebo)
  increase of distance travelled compared to control: 81%
[3]; oral 28 days
  exercise performance, energy, and endurance (in words): significant improvements of exercise performance, energy, and endurance
[3]; oral once daily 28 days, HED 50 mg paraxanthine, 25 mg L-Theanine
  distance travelled during treadmill exercise: 309.50±6.77 m
[4]; old rats
  dopamine (dopa) concentration: 516.85 ± 4.43 ng/L
  increase in dopa compared to L-Theanine: 9.3%
  increase in dopa compared to placebo: 32.7%
[4]; young rats
  dopamine (dopa) concentration: 580.22 ± 5.33 ng/L
  increase in dopa compared to L-Theanine: 9.8%
  increase in dopa compared to placebo: 23.7%
[5]; old rats
  BDNF: 842.7 ± 6.26 pg/mL
  increase in BDNF compared to L-Theanine: 6.8%
  increase in BDNF compared to placebo: 18.1%
[5]; young rats
  BDNF: 917 ± 5.21 pg/mL
  increase in BDNF compared to L-Theanine: 5.9%
  increase in BDNF compared to placebo: 22.7%
[6]; old rats
  acetylcholine (Ach) concentration: 59.78±2.61 U/mL
  increase in Ach compared to L-Theanine: 7.0%
  increase in Ach compared to placebo: 23.3%
[6]; young rats
  acetylcholine (Ach) concentration: 66.83±2.38 U/mL
  increase in Ach compared to L-Theanine: 6.4%
  increase in Ach compared to placebo: 23.9%
[7]; old rats (16-month-old)
  escape latency: 39.00 ± 1.90 s
[7]; old rats
  decrease of escape latency compared to L-Theanine: 12.7%
  decrease of escape latency compared to control: 33.7%
[7]; young rats (8-week-old)
  escape latency: 32.50 ± 1.38 s
[7]; young rats
  decrease of escape latency compared to L-Theanine: 15.2%
  decrease of escape latency compared to control: 40%
